Literature values, collected in patent US11413229B2, “Oral plaque dispersion agent” (KAO CORPORATION, priority 2016, dated 2022).

Settings: at 20° C.

CC(CO)(CO)CO [Trimethylolethane, 1,1,1-tris(hydroxymethyl)ethane]
solubility to water: 60 g/100 mL
